Molecules are shown by their SMILES. Residues, ends and D or L forms follow the SMILES beside them. *: point of attachment. Cbz = O=C(OCc1ccccc1)*

As to `CCOCn1c(C(OC(C)=O)c2ccccc2)c(C(C)C)c(=O)[nH]c1=O` (stereo not given), the melting point (in general, the temperature, or range, at which the solid turns liquid) is 158 °C.
Then `CC[C@H](N)C(=O)N1c2ccccc2C[C@H]1C(=O)NC`, with 138 to 139 °C; and `CN(C)S(=O)(=O)NC1CCC(CCN2CCN(c3nccc4c3OCC4)CC2)CC1` (stereo not given), with 128 °C; and `O=C(O)c1ccc(-c2nnc(-c3ccccc3[N+](=O)[O-])o2)cc1`, with 239 to 240 °C.
In turn, `CCOC(=O)C(=CN)C(=O)c1cc(F)c(Cl)c([N+](=O)[O-])c1Cl` displayed a melting point of 113 to 114 °C.
`COC(=O)CCCCc1csc(N)n1` had a melting point of 131 °C.
Then `COC(=O)C1C(N2C(=O)c3ccccc3C2=O)C(=O)N1Cc1ccc(OC)cc1` (stereo not given), with 141 to 142 °C.
Consider `CC(C(=O)O)c1cccc(N)c1` (stereo not given), for which the melting point was 98 to 100 °C.
Molecule `COC(=O)C(NC(=O)OCc1ccccc1)OC` (stereo not given) came in with a melting point of 74 to 75 °C.
Then `O=c1[nH]cnc2ccc(F)cc12`, with 252 to 255 °C; and `CC(C)Oc1cc(CCC(=O)O)n(Cc2ccc(Cl)cc2Cl)n1`, with 114 to 115 °C; and `CN(Cc1ccccc1)S(=O)(=O)CC#N`, with 68 to 70 °C.
As for `CNc1nc(-c2cc3cccc(N(C)S(=O)(=O)c4cccs4)c3[nH]2)cs1`, the melting point was in the range of 162 to 163 °C.
With `COC(=O)COc1ccc2cc(CNC(=O)c3cc(-c4ccc(Cl)cc4)oc3C)ccc2c1`, the melting point fell in the range of 168 to 169 °C.
`O=C(O)c1cnc2ccc(Cl)cc2c1-c1ccccc1` registered a melting point of 269 to 270 °C.
Then `COc1ccc(CC(=O)N2CCn3c(c(C(N)=O)c(Cl)c3-c3ccccc3)C2)cc1`, with 146 to 148 °C; and `CCCOc1ccc(Cl)c2c(=O)c3ccccc3sc12`, with 102 to 103 °C; and `O=[N+]([O-])c1ccc(Br)cc1O`, with 40 to 42 °C.
Take `COc1cc2cc(-c3c(F)cccc3F)sc2c(Cl)c1Cl`: the melting point was in the range of 173 to 174 °C.
The molecule `CS(=O)(=O)c1ccc(-c2nc3cc(OC(=O)N4CCCCC4)ccc3s2)c(F)c1` displayed a melting point of 173 to 178 °C.
The molecule `CSCC[C@@H](NC(=O)OC(C)(C)C)C(=O)Oc1c(Cl)c(Cl)c(Cl)c(Cl)c1Cl` came in with a melting point of 133 to 134 °C.
`CCCc1c(O)c(Cl)cc(C(=O)OC)c1O`: the melting point is 75 to 76 °C.
Molecule `CCC(=O)Nc1cc(F)ccc1C(=O)O` showed a melting point of 170 to 171 °C.
`COC(=O)c1c(-c2cccc(F)c2)c2cc(OCc3ccccc3)ccc2c(=O)n1CC(C)C` returned a melting point of 127 to 128 °C.
Molecule `CC1CCCCN1C(=O)c1nc(-c2ccccc2)nc2ccccc12` (stereo not given) registered a melting point of 150 °C.
`CCOc1ccc2c(c1)n(C1CCCCC1)c(=O)n2Cc1ccc(NC(=O)N(C)C)cc1OC` registered a melting point of 250 °C.
Under `CCc1nc2csc(C(=S)OC)c2[nH]1` stands 140 to 142 °C; under `CCC1(CCCCCC(=O)O)C(=O)NC(=O)NC1=O`, 185 to 192 °C.
Then `CN1C(=O)C2CC(c3ccccc3)(C2)C1=O`, with 175 to 176 °C; and `CCc1nc2c(C)cc(C)nc2n1-c1ccc(CCNC(=O)NS(=O)(=O)c2cc3ccccc3s2)cc1`, with 128 to 130 °C.
On to `O=C(O)CCc1cc(F)cc(F)c1`, for which the melting point worked out at 56 °C.
`FC(F)(F)c1cc(-c2ccc(Br)cc2)nc2c(-c3ccncc3)cnn12` showed a melting point of 289 °C.
Under `c1cnc(-c2cc(C3CC3)on2)cn1` stands 86 to 91 °C.
Then `CCOC(=O)C(Cc1ccc(CC(F)(F)C(F)(F)F)cc1)C(=O)c1cccc(Cl)c1` (stereo not given), with 81 to 82 °C; and `CCNC(C)CCC1(C(N)=O)c2ccccc2-c2ccccc21` (stereo not given), with 180 to 182 °C; and `O=C(O)c1csc(Oc2cccc(Cl)c2)n1`, with 135 to 137 °C.
Then `Cc1ncsc1C(=O)Nc1cnc(-n2nc(C(F)(F)F)cc2C2CC2)nc1`, with 148 to 152 °C.
As to `CNC(=NCCSCc1nc[nH]c1C)S(=O)(=O)O`, the melting point was 162 to 164 °C.
Molecule `COC(=O)c1cnn(-c2cccc(Cl)c2)c1C(N)=O` gave a melting point of 191 to 192 °C.
Regarding `COc1ccc(C#N)c(C)n1`, the melting point is 80 to 80.5 °C.
Take `CNCCCOc1ccc(-c2ccc(C(=O)O)cc2)cc1-c1ccc2c(c1)C(C)(C)CCC2(C)C`: the melting point came out at 242 °C.
`Cc1cc(C)c(P(C(C)(C)C)C(C)(C)C)c(C)c1`: the melting point fell in the range of 36 to 37 °C.
With `O=C(O)C(=O)c1ccc(SCCOC2CCCCCCC2)cc1`, the melting point was 84 to 85 °C.
As to `Cc1cc(C)c(Nc2ccnc(Nc3ccc(C#N)cc3)n2)c(C)c1`, the melting point was 217 to 218 °C.
The molecule `CCCCOc1cc(/C=C/C(=O)O)n(Cc2ccc(C(F)(F)F)cc2)n1` registered a melting point of 153 to 155 °C.
Then `CC(=O)c1ccc(Nc2ccccc2)cc1`, with 105 °C; and `O=C(Nc1ccccc1[N+](=O)[O-])c1ccc(-n2nc(C(F)(F)F)cc2C(F)(F)F)cc1`, with 173 to 175 °C.
As for `COC(=O)CCCc1cc2nc(Cl)ccc2n1S(=O)(=O)c1ccc2nc(NC(C)=O)sc2c1`, the melting point stood at 274 °C.
`CC(C)C1(C(=O)O)CCCCC1` came in with a melting point of 102 °C.
With `CS(=O)(=O)c1ccc(-c2c(-c3ccc(O)cc3)[nH]c3ccc(Cl)cc23)cc1`, the melting point lay within 271 to 273 °C.
Molecule `CCOc1cc(C(F)(F)F)sc1C(=O)O` yielded a melting point of 144 °C.
As for `CS(=O)(=O)Nn1c(=O)[nH]c2cc(C(F)(F)F)c(CCCO)cc2c1=O`, the melting point lay within 243 to 247 °C.
The molecule `COc1cccc2c1NCn1cc(CO)cc1-2` registered a melting point of 137 to 138 °C.
For the molecule `Cn1c2c(c3cccc(F)c31)C(=O)NCC2`, the melting point turned out to be 242 °C.
Molecule `COC(=O)C(Cc1ccc(O)cc1)NC(=O)C(CO)NC(=O)C(Cc1c[nH]c2ccccc12)NC(=O)C(CCC(N)=O)NC(=O)OCc1ccccc1` (stereo not given) (Cbz-QWSY-OMe; configuration not given here) gave a melting point of 238 to 241 °C.
`CCCCCCOC(=O)NC(=N)c1ccc(NCc2nc3cc(C(=O)N(CCC(=O)OCC)c4ccccn4)ccc3n2C)cc1` registered a melting point of 126 to 128 °C.
Take `CCCC(=O)OCC(CO)CCn1cnc2cnc(N)nc21` (stereo not given): the melting point was 125 to 127 °C.
Molecule `CCCN(Cc1ccc(-c2ccccc2-c2nnn[nH]2)cc1)c1nc(C)nnc1C(=O)OCC` had a melting point of 120 to 122 °C.
For `CCOC(=O)C(CC)Cc1ccc(NC(=O)Cc2ccc(-n3cccc3)cc2)cc1` (stereo not given), the melting point is 100 to 102 °C.
Take `Fc1ccc2c(c1)C(=C1SCCCS1)CCO2`: the melting point was 47 to 49 °C.
Then `COCCCNCc1ccc(-c2cc3ncnc(Nc4ccc5[nH]ccc5c4)c3s2)cc1`, with 160 to 175 °C.
Consider `O=C(Nc1ccc(-n2nc(C(F)(F)F)cc2C(F)(F)F)cc1)c1ccoc1`, for which the melting point was in the range of 206 to 207 °C.
Consider `O=C(COCc1ccccc1)NC(C(=O)Nc1n[nH]c(=S)s1)c1ccccc1` (stereo not given), for which the melting point is 96 to 100 °C.
Regarding `COc1cccc(N2C(=O)C3(CCCCO3)C(=O)c3cccnc32)c1` (stereo not given), the melting point was in the range of 233 to 236 °C.
Then `OCc1c(Br)c(Br)c(Br)c(CO)c1Br`, with 248 to 252 °C; and `COC(=O)CC(NC(=O)CC1CCCCC1)C(C)=O` (stereo not given), with 75 to 76 °C; and `CCC1(c2c[nH]cn2)Cc2ccc(N)cc2C1` (stereo not given), with 145 to 152 °C.
`Nc1nc(N)nc(N(c2ccc(OCOc3ccc(N(c4nc(N)nc(N)n4)c4nc(N)nc(N)n4)cc3)cc2)c2nc(N)nc(N)n2)n1` registered a melting point of over 300 °C.
Turning to `CC(=O)Oc1ccc(C=CC(=O)NC23CC4CC(CC(C4)C2)C3)cc1[N+](=O)[O-]`, the melting point was 179 to 180 °C.
As for `O=C(C=Cc1ccc(F)cc1)C(c1ccccc1)c1ccccc1`, the melting point was in the range of 122 to 124 °C.
`CS(=O)(=O)Nc1c(Br)cnn1-c1ccc(C(F)(F)F)cc1Cl` showed a melting point of 63 to 65 °C.
Under `CC(C)(CO)c1ccc2c(c1)OC(C(F)(F)F)C(C(=O)O)=C2` (stereo not given) stands 229 to 230 °C; under `CNC(=O)c1cc(NC(=O)c2ccc(C)c(Nc3nccc(N4C=CC=NC4)n3)c2)cc(N2CCOCC2)c1`, 153 to 156 °C; under `O=[N+]([O-])c1ccc2c(c1)S(=O)(=O)NCN2C1CC1`, 198 to 201 °C.
Turning to `CCCCCCCCc1ccc(CCC(C)(CCOC(C)=O)NC(C)=O)cc1` (stereo not given), the melting point lay in the range of 137 to 141 °C.
`CCCCn1c(=O)c(NC(=O)Nc2c(C(C)C)cccc2C(C)C)c(-c2cccc(OCCCCl)c2)c2cccnc21` returned a melting point of 138 to 140 °C.
Turning to `CC(=O)Nc1cc(I)ccc1C(=O)O`, the melting point lay within 229 to 232 °C.
The molecule `CCOC(=O)c1cc(N)nn1C` returned a melting point of 57 to 58 °C.
The molecule `O=C1c2ccccc2C(=O)N1CCCCn1cnc(-c2ccc([N+](=O)[O-])cc2)c1` came in with a melting point of 170 to 172 °C.
In turn, `CCOC(=O)c1cn(-c2nc(NCc3ccc(OC)cc3)c(F)cc2F)c2c(F)c(F)c(F)c(NCc3ccccc3)c2c1=O` showed a melting point of 146 to 148 °C.
Molecule `CCOC(=O)OC12Oc3cc(C(C)C)ccc3C1(O)C(=O)c1ccccc12` (stereo not given) displayed a melting point of 144 to 147 °C.
In the case of `c1ccc(CN(c2ccccc2)c2ccccc2)cc1`, the melting point came to 86 °C.
Consider `CCOCc1nc2c(N)nc3cc(OCCCn4cccc4)ccc3c2n1CC(C)C`, for which the melting point is 160 to 162 °C.
As for `O=C(O)CCc1cc2cc(Cl)ccc2n1S(=O)(=O)c1ccccc1`, the melting point lay in the range of 165 to 168 °C.
For the molecule `O=C(CCCCCCNC(=O)c1cn2c3c(cccc13)CCC2)NO`, the melting point lay within 205 to 206 °C.
Turning to `CC(=O)N(c1ccc(O)cc1)N1CCCCC1`, the melting point lay in the range of 217 to 218 °C.
For `O=C1c2ccccc2C(=O)N1Cc1cc2ccccc2[nH]1`, the melting point was in the range of 215 to 220 °C.
Regarding `Cc1nc2c(O[C@@H]3c4ccccc4C[C@H]3O)cc(Cl)cn2c1C=O` (relative stereo), the melting point was in the range of 220 to 222 °C.
Then `CC(=O)CN1CCNC1=Nc1cc2c(cc1Br)OCCO2`, with 98 to 100 °C; and `Cc1cc(Cn2nnn(-c3cccc(C(F)(F)F)c3)c2=O)ccc1N`, with 89 to 94 °C.

For the origin of these results see a melting point compilation (Tetko et al.; mined from patent text by program, amines drawn as free bases though some values may be those of a salt).
